Data taken from patent US6737383B1, “Herbicidal oxadiazolidines” (priority 1999, dated 2004).

Key:
[1] = tested on: smallflower flatsedge; assay: Test B flood test smallflower flatsedge; format: in vivo, Cyperus difformis
Summary of the method: (§1)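 Read-out is a visual response score from 0 (no effect) to 10 (complete control), assigned by comparison with untreated controls. Treatment was applied at the 2-leaf stage, and plants stayed in the greenhouse for twelve to sixteen days before scoring.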

[2] = tested on: wild oat; assay: Test B pre/postemergence wild oat; format: in vivo, Avena fatua; details: for Plant response rating, Wild oats: Rate 250 g/ha
Summary of the method: (§2)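 Response is a visual 0-to-10 score relative to untreated plants, where 0 means no effect and 10 means complete control, taken twelve to sixteen days after application. Treatments went onto soil at planting and onto foliage of 1- to 4-leaf plants, using a surfactant-containing non-phytotoxic solvent.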

[3] = tested on: morningglory; assay: Test B pre/postemergence morningglory; format: in vivo, Ipomoea hederacea; details: for Plant response rating, Morningglory: Rate 250 g/ha
Summary of the method: as §2

[4] = tested on: cocklebur; assay: Test B pre/postemergence cocklebur; format: in vivo, Xanthium strumarium; details: for Plant response rating, Cocklebur: Rate 250 g/ha
Summary of the method: as §2

[5] = tested on: purple nutsedge; assay: Test B pre/postemergence purple nutsedge; format: in vivo, Cyperus rotundus; details: for Plant response rating, Nutsedge: Rate 250 g/ha
Summary of the method: as §2

[6] = tested on: duck salad; assay: Test B flood test duck salad; format: in vivo, Heteranthera limosa
Summary of the method: as §1

[7] = tested on: crabgrass; assay: Test B pre/postemergence crabgrass; format: in vivo, Digitaria sanguinalis; details: for Plant response rating, Crabgrass: Rate 250 g/ha
Summary of the method: as §2

[8] = tested on: velvetleaf; assay: Test B pre/postemergence velvetleaf; format: in vivo, Abutilon theophrasti; details: for Plant response rating, Velvetleaf: Rate 250 g/ha
Summary of the method: as §2

[9] = tested on: surinam grass; assay: Test B pre/postemergence surinam grass; format: in vivo, Brachiaria decumbens; details: for Plant response rating, B. signalgrass: Rate 250 g/ha
Summary of the method: as §2

[10] = tested on: bedstraw; assay: Test B pre/postemergence bedstraw; format: in vivo, Galium aparine
Summary of the method: as §2

[11] = tested on: wheat; assay: Test B pre/postemergence wheat; format: in vivo, Triticum aestivum; details: for Plant response rating, Wheat: Rate 250 g/ha
Summary of the method: as §2

[12] = tested on: corn; assay: Test B pre/postemergence corn; format: in vivo, Zea mays; details: for Plant response rating, Corn: Rate 250 g/ha
Summary of the method: as §2

[13] = tested on: bamyardgrass; assay: Test B flood test barnyardgrass; format: in vivo, Echinochloa crus-galli
Summary of the method: as §1

[14] = tested on: rice; assay: Test B flood test rice; format: in vivo, Oryza sativa
Summary of the method: as §1

[15] = tested on: giant foxtail; assay: Test B pre/postemergence giant foxtail; format: in vivo, Setaria faberii; details: for Plant response rating, Giant foxtail: Rate 250 g/ha
Summary of the method: as §2

[16] = tested on: blackgrass; assay: Test B pre/postemergence blackgrass; format: in vivo, Alopecurus myosuroides; details: for Plant response rating, Blackgrass: Rate 250 g/ha
Summary of the method: as §2

[17] = Postemergence (flood test species), Rate 125 g/ha, scale of 0 to 10 where 0 is no effect and 10 is complete control
[18] = Rate 62 g/ha, Postemergence section, flood test species, scale of 0 to 10 where 0 is no effect and 10 is complete control
[19] = Rate 250 g/ha, Postemergence (flood test), scale 0 to 10, 0 is no effect, 10 is complete control
[20] = Rate 250 g/ha, headed Pre-emergence (flood test species), scale 0 to 10 (0 no effect, 10 complete control)
[21] = Rate 500 g/ha, headed Pre-emergence (flood test species), scale 0 to 10 (0 no effect, 10 complete control)
[22] = Rate 500 g/ha, listed under Postemergence (flood test species), scale 0 to 10, 0 no effect, 10 complete control
[23] = Rate 2000 g/ha, Pre-emergence (as headed), scale 0 to 10
[24] = Postemergence, Rate 125 g/ha, scale of 0 to 10 where 0 is no effect and 10 is complete control
[25] = Preemergence, Rate 62 g/ha, scale 0 to 10 (0 no effect, 10 complete control)
[26] = Preemergence, Rate 125 g/ha, 0 is no effect, 10 is complete control
[27] = Preemergence, scale of 0 to 10 where 0 is no effect and 10 is complete control
[28] = Preemergence, Rate 500 g/ha, scale 0 to 10 (0 no effect, 10 complete control)
[29] = Rate 62 g/ha, Postemergence, scale of 0 to 10 where 0 is no effect and 10 is complete control
[30] = Postemergence, scale 0 to 10, 0 is no effect, 10 is complete control
[31] = Rate 500 g/ha, Postemergence, scale 0 to 10, 0 no effect, 10 complete control
[32] = Rate 1000 g/ha, Pre-emergence (as headed), scale 0 to 10
[33] = Postemergence, Rate 62 g/ha, scale 0 to 10, 0 is no effect, 10 is complete control

CC(C)N(C(=O)n1oc(=O)n(-c2cnn(C)c2Cl)c1=O)c1ccccc1 [Compound 122]
S. Flatsedge plant response rating [1, 17]: 0
S. Flatsedge plant response rating ([1]; Pre-emergence, Rate 1000 g/ha, scale 0 to 10 (0 no effect, 10 complete control)): 0
S. Flatsedge plant response rating [1, 18]: 0
Plant response rating, S. Flatsedge [1, 19]: 0
S. Flatsedge plant response rating [1, 20]: 0
Plant response rating, S. Flatsedge [1, 21]: 0
S. Flatsedge plant response rating [1, 22]: 0
S. Flatsedge plant response rating [1, 23]: 0
Wild oats plant response rating [2, 24]: 0
Wild oats plant response rating [2, 25]: 0
Wild oats plant response rating (0 to 10 scale) [2, 26]: 0
Plant response rating, Wild oats [2, 27]: 3
Wild oats plant response rating [2, 28]: 5
Wild oats plant response rating [2, 29]: 0
Plant response rating, Wild oats [2, 30]: 0
Wild oats plant response rating [2, 31]: 0
Morningglory plant response rating [3, 24]: 3
Morningglory plant response rating [3, 25]: 0
Morningglory plant response rating (0 to 10 scale) [3, 26]: 0
Plant response rating, Morningglory [3, 27]: 0
Morningglory plant response rating [3, 28]: 0
Morningglory plant response rating [3, 29]: 1
Plant response rating, Morningglory [3, 30]: 4
Morningglory plant response rating [3, 31]: 4
Cocklebur plant response rating [4, 24]: 2
Cocklebur plant response rating [4, 25]: 0
Plant response rating, Cocklebur [4, 27]: 0
Cocklebur plant response rating [4, 29]: 0
Plant response rating, Cocklebur [4, 30]: 3
Cocklebur plant response rating [4, 31]: 3
Nutsedge plant response rating [5, 24]: 0
Nutsedge plant response rating [5, 25]: 0
Nutsedge plant response rating (0 to 10 scale) [5, 26]: 0
Plant response rating, Nutsedge [5, 27]: 0
Nutsedge plant response rating [5, 28]: 0
Nutsedge plant response rating [5, 29]: 0
Plant response rating, Nutsedge [5, 30]: 0
Nutsedge plant response rating [5, 31]: 0
Ducksalad plant response rating [6, 17]: 0
Ducksalad plant response rating [6, 18]: 0
Plant response rating, Ducksalad [6, 19]: 0
Ducksalad plant response rating [6, 20]: 0
Plant response rating, Ducksalad [6, 21]: 0
Ducksalad plant response rating [6, 22]: 0
Ducksalad plant response rating [6, 32]: 0
Ducksalad plant response rating [6, 23]: 0
Crabgrass plant response rating [7, 24]: 3
Crabgrass plant response rating [7, 25]: 4
Crabgrass plant response rating (0 to 10 scale) [7, 26]: 4
Plant response rating, Crabgrass [7, 27]: 8
Crabgrass plant response rating [7, 28]: 8
Crabgrass plant response rating [7, 29]: 0
Plant response rating, Crabgrass [7, 30]: 4
Crabgrass plant response rating [7, 31]: 5
Velvetleaf plant response rating [8, 24]: 0
Velvetleaf plant response rating [8, 25]: 0
Velvetleaf plant response rating (0 to 10 scale) [8, 26]: 0
Plant response rating, Velvetleaf [8, 27]: 0
Velvetleaf plant response rating [8, 28]: 3
Velvetleaf plant response rating [8, 29]: 0
Plant response rating, Velvetleaf [8, 30]: 3
Velvetleaf plant response rating [8, 31]: 3
B. signalgrass plant response rating [9, 33]: 0
B. signalgrass plant response rating [9, 24]: 0
B. signalgrass plant response rating [9, 25]: 0
B. signalgrass plant response rating (0 to 10 scale) [9, 26]: 0
Plant response rating, B. signalgrass [9, 27]: 0
B. signalgrass plant response rating [9, 28]: 5
Plant response rating, B. signalgrass [9, 30]: 0
B. signalgrass plant response rating ([9]; Rate 500 g/ha, Postemergence, scale of 0 to 10 where 0 is no effect and 10 is complete control): 0
Bedstraw plant response rating [10, 25]: 0
Bedstraw plant response rating (0 to 10 scale) [10, 26]: 0
Plant response rating, Bedstraw ([10]; Preemergence, Rate 250 g/ha, scale of 0 to 10 where 0 is no effect and 10 is complete control): 0
Bedstraw plant response rating [10, 28]: 0
Bedstraw plant response rating [10, 31]: 3
Wheat plant response rating [11, 24]: 0
Wheat plant response rating [11, 25]: 0
Wheat plant response rating (0 to 10 scale) [11, 26]: 0
Plant response rating, Wheat [11, 27]: 0
Wheat plant response rating [11, 28]: 0
Wheat plant response rating [11, 29]: 0
Plant response rating, Wheat [11, 30]: 0
Wheat plant response rating [11, 31]: 0
Corn plant response rating [12, 24]: 0
Corn plant response rating [12, 25]: 0
Corn plant response rating (0 to 10 scale) [12, 26]: 0
Plant response rating, Corn [12, 27]: 0
Corn plant response rating [12, 28]: 0
Corn plant response rating [12, 29]: 0
Plant response rating, Corn [12, 30]: 0
Corn plant response rating [12, 31]: 0
Barnyardgrass plant response rating [13, 17]: 0
Barnyardgrass plant response rating [13, 33]: 0
Plant response rating, Barnyardgrass [13, 19]: 0
Barnyardgrass plant response rating [13, 20]: 0
Plant response rating, Barnyardgrass [13, 21]: 0
Barnyardgrass plant response rating [13, 22]: 0
Barnyardgrass plant response rating [13, 32]: 0
Barnyardgrass plant response rating ([13]; Rate 2000 g/ha, Pre-emergence (as headed), scale 0 to 10, 0 no effect, 10 complete control): 0
Rice plant response rating [14, 17]: 0
Rice plant response rating [14, 18]: 0
Plant response rating, Rice [14, 19]: 0
Rice plant response rating [14, 20]: 0
Plant response rating, Rice [14, 21]: 0
Rice plant response rating [14, 22]: 0
Rice plant response rating [14, 32]: 0
Rice plant response rating [14, 23]: 0
Giant foxtail plant response rating [15, 24]: 2
Giant foxtail plant response rating [15, 25]: 7
Giant foxtail plant response rating (0 to 10 scale) [15, 26]: 9
Plant response rating, Giant foxtail [15, 27]: 9
Giant foxtail plant response rating [15, 28]: 9
Giant foxtail plant response rating [15, 29]: 2
Plant response rating, Giant foxtail [15, 30]: 6
Giant foxtail plant response rating [15, 31]: 9
Blackgrass plant response rating [16, 24]: 0
Blackgrass plant response rating [16, 25]: 0
Blackgrass plant response rating (0 to 10 scale) [16, 26]: 0
Plant response rating, Blackgrass [16, 27]: 0
Blackgrass plant response rating [16, 28]: 3
Blackgrass plant response rating [16, 29]: 0
Plant response rating, Blackgrass [16, 30]: 4
Blackgrass plant response rating [16, 31]: 6
